For five cell lines, relative viability results are on record in the supplement of paper PMC10307832.

What all share (experiment): relative viability (nuclei count vs DMSO), 5 days (fraction); higher = more cells survive
Compound in assay [1]: OCc1c[nH]c2ccccc12 [Indole-3-carbinol] + COc1cccc2cc(-c3nc([C@H]4CC[C@H](C(=O)O)CC4)n4ncnc(N)c34)[nH]c12 [OSI-027] (partner 0.5 µM)
In short, it runs like this:
(§1)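 Lung cancer cell lines were seeded in 1536-well plates and dosed by pin tool the next day, with either a single drug or a fixed anchor-drug dose combined with five library-drug doses (not always all listed) spaced in √10 steps. Five days later, one step fixed the cells and stained their nuclei (final 0.05% Triton X-100, 1% formaldehyde, 1 ug/ml Hoechst), and nuclei were counted on 4× images. Relative viability is the nuclei count in treated wells divided by the count in vehicle wells, and each value is the median of duplicate plates.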

Compound in assay [2]: OCc1c[nH]c2ccccc12 [Indole-3-carbinol] + Nc1nc2[nH]cc(CCc3ccc(C(=O)N[C@@H](CCC(=O)O)C(=O)O)cc3)c2c(=O)[nH]1 [Pemetrexed] (partner 0.2 µM)
An outline of the steps:
as §1

Compound in assay [3]: OCc1c[nH]c2ccccc12 [Indole-3-carbinol] + C[C@@H](Oc1cc(-c2cnn(C3CCNCC3)c2)cnc1N)c1c(Cl)ccc(F)c1Cl [Crizotinib] (partner 1 µM)
In short, it runs like this:
as §1

Compound in assay [4]: OCc1c[nH]c2ccccc12 [Indole-3-carbinol] + Nc1ncn([C@H]2C[C@H](O)[C@@H](CO)O2)c(=O)n1 [Decitabine] (partner 2 µM)
In short, it runs like this:
as §1

Compound in assay [5]: OCc1c[nH]c2ccccc12 [Indole-3-carbinol] + CC(C)C[C@H](NC(=O)[C@H](Cc1ccccc1)NC(=O)c1cnccn1)B(O)O [Bortezomib] (partner 0.002 µM)
An outline of the steps: as §1

As to PC-14, the relative viability in assay [1] (first compound 0.253 µM) was 0.756; in assay [1] (first compound 0.8 µM), 0.828; in assay [1] (first compound 2.53 µM), 0.873; in assay [1] (first compound 8 µM), 0.706; in assay [2] (first compound 0.253 µM), 0.14; in assay [2] (first compound 0.8 µM), 0.127. Moreover, the relative viability in assay [2] (first compound 2.53 µM) is 0.13; in assay [2] (first compound 8 µM), 0.146; in assay [3] (first compound 0.253 µM), 0.936; in assay [3] (first compound 0.8 µM), 1.04; in assay [3] (first compound 2.53 µM) it was 0.903; in assay [3] (first compound 8 µM) it was 0.883. Further, the relative viability in assay [4] (first compound 0.253 µM) is 0.201; in assay [4] (first compound 0.8 µM), 0.196; in assay [4] (first compound 2.53 µM) it was 0.276; in assay [4] (first compound 8 µM), 0.23; in assay [5] (first compound 0.253 µM) it was 0.878; in assay [5] (first compound 0.8 µM) it was 0.971. In addition, the relative viability in assay [5] (first compound 2.53 µM) stood at 0.85; in assay [5] (first compound 8 µM), 0.874.

Consider RERF-LC-KJ, for which the relative viability turned out to be 0.556 in assay [1] (first compound 0.253 µM); 0.545 in assay [1] (first compound 0.8 µM); 0.585 in assay [1] (first compound 2.53 µM); 0.601 in assay [1] (first compound 8 µM); 0.47 in assay [2] (first compound 0.253 µM); 0.461 in assay [2] (first compound 0.8 µM). Also, the relative viability stood at 0.482 in assay [2] (first compound 2.53 µM); 0.466 in assay [2] (first compound 8 µM); 0.862 in assay [3] (first compound 0.253 µM); 0.917 in assay [3] (first compound 0.8 µM); 0.84 in assay [3] (first compound 2.53 µM); 0.793 in assay [3] (first compound 8 µM). Further, the relative viability amounted to 0.741 in assay [4] (first compound 0.253 µM); 0.69 in assay [4] (first compound 0.8 µM); 0.716 in assay [4] (first compound 2.53 µM); 0.62 in assay [4] (first compound 8 µM); 1.19 in assay [5] (first compound 0.253 µM); 1.08 in assay [5] (first compound 0.8 µM). The relative viability in assay [5] (first compound 2.53 µM) is 1.13; in assay [5] (first compound 8 µM), 1.04.

For the cell line SK-LU-1, the relative viability in assay [1] (first compound 0.253 µM) is 0.359; in assay [1] (first compound 0.8 µM) it was 0.322; in assay [1] (first compound 2.53 µM) it was 0.382; in assay [1] (first compound 8 µM) it was 0.314; in assay [2] (first compound 0.253 µM), 1.02; in assay [2] (first compound 0.8 µM), 1.03. Moreover, the relative viability is 1.09 in assay [2] (first compound 2.53 µM); 1.02 in assay [2] (first compound 8 µM); 1.01 in assay [3] (first compound 0.253 µM); 1.01 in assay [3] (first compound 0.8 µM); 0.989 in assay [3] (first compound 2.53 µM); 0.823 in assay [3] (first compound 8 µM). Also, the relative viability in assay [4] (first compound 0.253 µM) stood at 0.689; in assay [4] (first compound 0.8 µM) it was 0.626; in assay [4] (first compound 2.53 µM), 0.757; in assay [4] (first compound 8 µM), 0.719; in assay [5] (first compound 0.253 µM), 1.32; in assay [5] (first compound 0.8 µM), 1.03. Moreover, the relative viability in assay [5] (first compound 2.53 µM) was 1.35; in assay [5] (first compound 8 µM), 0.987.

As for SW 1573, the relative viability in assay [1] (first compound 0.253 µM) worked out at 0.639; in assay [1] (first compound 0.8 µM), 0.593; in assay [1] (first compound 2.53 µM) it was 0.804; in assay [1] (first compound 8 µM), 0.521; in assay [2] (first compound 0.253 µM), 0.803; in assay [2] (first compound 0.8 µM), 0.846. Besides, the relative viability in assay [2] (first compound 2.53 µM) stood at 0.881; in assay [2] (first compound 8 µM), 0.975; in assay [3] (first compound 0.253 µM), 0.722; in assay [3] (first compound 0.8 µM), 0.936; in assay [3] (first compound 2.53 µM), 0.833; in assay [3] (first compound 8 µM), 0.678. Further, the relative viability in assay [4] (first compound 0.253 µM) was 0.48; in assay [4] (first compound 0.8 µM) it was 0.535; in assay [4] (first compound 2.53 µM), 0.636; in assay [4] (first compound 8 µM) it was 0.417; in assay [5] (first compound 0.253 µM), 1.15; in assay [5] (first compound 0.8 µM), 1.18. Further, the relative viability in assay [5] (first compound 2.53 µM) was 1.12; in assay [5] (first compound 8 µM), 0.997.

Take UMC-11: the relative viability in assay [1] (first compound 0.253 µM) was found to be 0.443; in assay [1] (first compound 0.8 µM) it was 0.495; in assay [1] (first compound 2.53 µM) it was 0.464; in assay [1] (first compound 8 µM), 0.472; in assay [2] (first compound 0.253 µM), 0.787; in assay [2] (first compound 0.8 µM), 0.757. Moreover, the relative viability in assay [2] (first compound 2.53 µM) stood at 0.751; in assay [2] (first compound 8 µM), 0.717; in assay [3] (first compound 0.253 µM) it was 0.589; in assay [3] (first compound 0.8 µM), 0.708; in assay [3] (first compound 2.53 µM), 0.696; in assay [3] (first compound 8 µM) it was 0.577. In addition, the relative viability came to 0.608 in assay [4] (first compound 0.253 µM); 0.638 in assay [4] (first compound 0.8 µM); 0.709 in assay [4] (first compound 2.53 µM); 0.593 in assay [4] (first compound 8 µM); 0.748 in assay [5] (first compound 0.253 µM); 0.726 in assay [5] (first compound 0.8 µM). Also, the relative viability amounted to 0.757 in assay [5] (first compound 2.53 µM) and 0.904 in assay [5] (first compound 8 µM).
